The text below walks through data of patent EP4574151A1, “INHIBITORS OF G12V-MUTATED RAS PROTEIN TO TREAT CANCER” (Personather Spolka Z Ograniczona Odpowiedzialnoscia, priority 2023, dated 2025).

Structures are written as SMILES. “Also recorded” adds a separate entry of the source.

This assay relates to PER49 cell line. As to the kind of experiment: Western Blot analysis of the RAS-controlled signal transduction pathway in a normal cell line. It is filed as cell-based. Particulars: normal PER49 cell line without KRASG12V; 10, 15 and 20 µM; 24 hours; serum-free; ERK, p-ERK, Akt, pAkt blots. The text has this:
Analysis of the impact of the studied compound on the signal transduction pathway controlled by RAS family proteins in normal cell lines based on Western Blot analysis.
The example illustrates the impact of the PER154A and PER160A molecules on the signal transduction pathway in the normal PER49 cell line.
• 1. PER49 cell line cells at 80-90% confluency were rinsed with phosphate-buffered saline without Mg2+ and Ca2+ ions. Remove PBS. • 2. Cells were detached from the vessel using Trypsin-EDTA (0.05%, 1x) for 1-3 minutes at 37°C. • 3. Cells were transferred to a 15 ml tube, centrifuged (200xg, 4 minutes) and suspended in RPMI1640 medium with 10% bovine serum and antibiotics. • 4. Cells were counted. • 5. 3x10^5cells were added to each well of a 6-well plate for adherent culture. • 6. The above medium was added and left for approximately 24 hours.
• 7. The cells were washed 2-3 times with buffered saline without Mg2+ and Ca2+ ions. Each time PBS was thoroughly removed. • 8.2 ml of RPMI1640 medium with antibiotics and without serum was added, and left for approximately 24 hours.
• 9. The cells were washed 2-3 times with a buffered saline solution without Mg2+ and Ca2+. PBS was thoroughly removed each time. • 10. […]

For `O=C(Nc1ccc2c(c1)OCCO2)c1ccc2c(c1)C1C3CCC(C3)C1C(c1ccccc1)N2` (centres unmarked) [PER154A], the “influence on the signal transduction pathway” value is listed as “No impact; also recorded: does not show any influence”.
Then `O=C(Nc1ccc(F)cc1)c1ccc2c(c1)C1C3CCC(C3)C1C(c1ccccc1)N2` (centres unmarked) [PER160A], with “No impact; also recorded: does not show any influence”.
